How the values were obtained:
aquatic organisms = details: threshold for effluents, tenfold dilution assumed; ref Loos et al., 2018; cited from earlier work
[1] = target: T1, human estrogen receptor α (ERα) (Homo sapiens, UniProt P03372); test: ERα‐CALUX human cell-based reporter gene assay; details: based on PC10 values, 3 replicates, considering molecular weights
T1 sequence (P03372 1-595): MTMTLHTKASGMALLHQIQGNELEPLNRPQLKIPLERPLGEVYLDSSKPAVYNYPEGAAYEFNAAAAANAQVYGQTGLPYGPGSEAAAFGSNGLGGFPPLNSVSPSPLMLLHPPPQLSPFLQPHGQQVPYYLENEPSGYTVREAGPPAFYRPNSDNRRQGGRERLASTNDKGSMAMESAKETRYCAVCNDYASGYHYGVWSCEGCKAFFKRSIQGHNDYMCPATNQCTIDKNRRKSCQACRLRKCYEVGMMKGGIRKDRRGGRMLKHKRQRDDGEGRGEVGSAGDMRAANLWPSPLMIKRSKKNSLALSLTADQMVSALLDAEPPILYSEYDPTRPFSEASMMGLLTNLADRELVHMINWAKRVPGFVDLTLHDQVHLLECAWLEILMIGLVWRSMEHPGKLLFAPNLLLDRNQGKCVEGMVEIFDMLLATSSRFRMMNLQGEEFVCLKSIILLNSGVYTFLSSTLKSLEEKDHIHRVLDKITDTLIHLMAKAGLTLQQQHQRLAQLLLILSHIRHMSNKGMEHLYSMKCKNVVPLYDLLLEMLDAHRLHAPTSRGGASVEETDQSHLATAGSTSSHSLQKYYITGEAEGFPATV

[2] = target: T1, human estrogen receptor α (ERα); test: lyticase Yeast Estrogen Screen; format: cell-based; details: L‐YES; based on PC10 values, 3 replicates, considering molecular weights

| REP (relative estrogenic potency in comparison to 17β‐estradiol) [1] | REP (relative estrogenic potency in comparison to 17β‐estradiol) [2] | Compound | 10× diluted PNEC (aquatic organisms) [ng/L] |
| --- | --- | --- | --- |
| – | – | C#C[C@]1(O)CC[C@H]2[C@@H]3CCc4cc(O)ccc4[C@H]3CC[C@@]21C [EE2, 17α‐ethinylestradiol] | 0.35 |
| 4.2E−05 | 4.5E−05 | CC(C)(c1ccc(O)cc1)c1ccc(O)cc1 [BPA, bisphenol A] | – |
